Measurements: US20110245223A1, “HETEROCYCLIC COMPOUNDS” (Japan Tobacco Inc., priority 2005, published 2011)

Molecular target: T1, human HSD-1 (recombinant HSD-1) (Homo sapiens, UniProt P28845)
T1 construct: made in house
Assay: HSD-1 (hydroxysteroid dehydrogenase 1) activity inhibitory action in vitro, SPA, conversion of cortisone to cortisol
Format: biochemical
Conditions: recombinant human HSD-1 expressed using baculovirus system, 10 nM 3H cortisone, 500 μM NADPH, room temperature 90 to 120 min, read-out: hHSD1 (IC50 (nM))

T1 sequence (P28845 whole entry): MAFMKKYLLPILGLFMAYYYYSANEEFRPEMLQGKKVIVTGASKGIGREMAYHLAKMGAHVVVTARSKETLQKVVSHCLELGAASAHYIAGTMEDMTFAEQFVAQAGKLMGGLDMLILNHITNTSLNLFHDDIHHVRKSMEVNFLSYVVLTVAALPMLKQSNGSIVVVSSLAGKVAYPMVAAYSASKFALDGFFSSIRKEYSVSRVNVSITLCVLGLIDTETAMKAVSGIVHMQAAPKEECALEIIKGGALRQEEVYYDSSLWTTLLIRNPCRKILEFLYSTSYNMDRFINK

Structure (SMILES): O=C(OCCO)N1CCC(n2ncc(C(=O)N3CC[C@@H](c4ccccc4C(F)(F)F)C3)c2C2CC2)CC1 [Example 58, 1-{5-cyclopropyl-1-[1-(2-hydroxyethoxycarbonyl)piperidin-4-yl]-1H-pyrazole-4-carbonyl}-[(S)-3-(2-trifluoromethylphenyl)]pyrrolidine]
- IC50: < 30 nM
